Reference: article PMC6457333 (Chemical Science, 2019)

Target: N. europaea cyt P460 (Nitrosomonas europaea, UniProt Q50927)
Assay: biochemical

Chain of N. europaea cyt P460 (Q50927 27-198): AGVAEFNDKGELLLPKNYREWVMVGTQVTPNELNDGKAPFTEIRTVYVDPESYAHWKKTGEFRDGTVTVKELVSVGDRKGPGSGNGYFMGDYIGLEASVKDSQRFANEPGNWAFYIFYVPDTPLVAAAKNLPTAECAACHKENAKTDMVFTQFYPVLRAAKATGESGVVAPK

Work on `NO` [hydroxylamine] yielded a Kd of 9 ± 1 mM.
